According to US11767305B2, “Advantageous benzofuran compositions for mental disorders or enhancement” (Tactogen Inc, priority 2020, dated 2023):
Structures can show the parent of a compound that is named as a salt.

What was measured:
[1] = target: 5-HT1BR (Homo sapiens (Human), UniProt P28222); experiment: 5-HT1BR cAMP secondary messenger agonist assay (HitHunter, CHO-K1); assay type: cell-based
Source text: The 5-HT1BR cAMP secondary messenger agonist assay used a panel of CHO-K1 cell lines stably expressing non-tagged GPCRs that endogenously signal through cAMP. Hit Hunter® cAMP assays monitored the activation of a GPCR via Gi and Gs secondary messenger signaling in a homogenous, non-imaging assay format using DiscoverX Enzyme Fragment Complementation (EFC) with β-galactosidase as the functional endpoint.
The enzyme was split into two complementary portions: Enzyme Acceptor (EA) and Enzyme Donor (ED). Exogenously introduced ED fused to cAMP (ED-cAMP) competed with endogenously generated cAMP for binding to an anti-cAMP-specific antibody. Active β-galactosidase was formed by complementation of exogenous EA to any unbound ED-cAMP.
Cell lines were expanded from freezer stocks according to standard procedures. Cells were seeded in a total volume of 20 μL into white walled, 384-well microplates and incubated at 37° C. for the appropriate time prior to testing. cAMP modulation was determined using the DiscoverX HitHunter cAMP XS+ assay.
For agonist determination, cells were incubated with sample (in the presence of EC80 forskolin to induce response if measuring Gi secondary messenger signaling). Media was aspirated from cells and replaced with 15 μL 2:1 HBSS/10 mM Hepes:cAMP XS+ Ab reagent. Intermediate dilution of sample stocks was performed to generate 4×sample in assay buffer (optionally containing 4×EC80 forskolin). 5 μL of 4×sample was added to cells and incubated at 37° C. or room temperature for 30 or 60 minutes, as appropriate. Final assay vehicle concentration was 1%.

[2] = target: human 5-HT transporter (hSERT) (Homo sapiens (Human), UniProt P31645); experiment: Human serotonin transporter  assay ([3H]imipramine radioligand, CHO cells); assay type: binding; settings: for IC50: SERT IC50 (μM), 2 nM [3H]imipramine; for Ki: SERT Ki (μM), Cheng Prusoff equation
Experimental: Benzofuran derivatives were evaluated for inhibiting the human 5-HT transporter (hSERT) as expressed in CHO cells using an antagonist radioligand assay (Tatsumi, M. et al. (1999), Eur. J Pharmacol., 368: 277-283). […] Test compounds were assayed in three trials at […], and 0.94868 μM.

[3] = Salt screening experiments (PXRD result); assay type: physicochemical; settings: S-5-MAPB Pure Enantiomer (Pattern 1A Enantiomer) + counterion 1:1 molar ratio, 40° C.

| Compound | EC50 ([1]; 5-HT1BR EC50 (μM)) [µM] | PXRD Result ([3]; solvent Acetone) | PXRD Result ([3]; solvent EtOH:water 90:10) | PXRD Result ([3]; solvent MeOH:water 90:10) | PXRD Result ([3]; solvent THF) | further results |
| --- | --- | --- | --- | --- | --- | --- |
| CNC(C)C(=O)c1ccc2occc2c1 (racemic) [rac-BK-5-MAPB, 1-(benzofuran-5-yl)-2-(methylamino)propan-1-one hydrochloride] | 0.14 |  |  |  |  | Hill Coef. [1]: 0.91 |
| CCC(NC)C(=O)c1ccc2occc2c1 (racemic) [rac-BK-5-MBPB, 1-(benzofuran-5-yl)-2-(methylamino)butan-1-one hydrochloride] | 19.6 |  |  |  |  | Hill Coef. [1]: 1.01 |
| CNC(C)C(=O)c1ccc2ccoc2c1 (racemic) [rac-BK-6-MAPB, 1-(benzofuran-6-yl)-2-(methylamino)propan-1-one hydrochloride] | 0.537 |  |  |  |  | Hill Coef. [1]: 0.99 |
| CCC(NC)C(=O)c1ccc2ccoc2c1 (racemic) [rac-BK-6-MBPB, 1-(benzofuran-6-yl)-2-(methylamino)butan-1-one hydrochloride] | > 30 |  |  |  |  |  |
| CNC(C)C(=O)c1ccc2occc2c1 (single isomer, unassigned) [Enantiomer 1 BK-5-MAPB, 1-(benzofuran-5-yl)-2-(methylamino) propan-1-one] |  |  |  |  |  | EC50 ([1]; 5HT1B Agonist (μM)): 0.08 µM |
| CNC(C)C(=O)c1ccc2occc2c1 (single isomer, unassigned) [Enantiomer 2 BK-5-MAPB, 1-(benzofuran-5-yl)-2-(methylamino) propan-1-one] |  |  |  |  |  | EC50 ([1]; 5HT1B Agonist (μM)): 3.07 µM |
| CCC(NC)C(=O)c1ccc2occc2c1 (single isomer, unassigned; (+)) [(+)-BK-5-MBPB, 1-(benzofuran-5-yl)-2-(methylamino) butan-1-one] | > 30 |  |  |  |  | IC50 [2]: 6.5 µM; Ki [2]: 3 µM |
| CCC(NC)C(=O)c1ccc2ccoc2c1 (single isomer, unassigned; (+)) [(+)-BK-6-MBPB, 1-(benzofuran-6-yl)-2-(methylamino)butan-1-one] | > 30 |  |  |  |  | IC50 [2]: 29 µM; Ki [2]: 13 µM |
| CCC(NC)C(=O)c1ccc2occc2c1 (single isomer, unassigned; (-)) [(−)-BK-5-MBPB, 1-(benzofuran-5-yl)-2-(methylamino) butan-1-one] | 6.61 |  |  |  |  | Hill Coef. [1]: 1.6241; IC50 [2]: 1.6 µM; Ki [2]: 0.72 µM |
| CCC(NC)C(=O)c1ccc2ccoc2c1 (single isomer, unassigned; (-)) [(−)-BK-6-MBPB, 1-(benzofuran-6-yl)-2-(methylamino)butan-1-one] | 7.52 |  |  |  |  | Hill Coef. [1]: 1.9551; IC50 [2]: 3.7 µM; Ki [2]: 1.7 µM |
| O=S(=O)(O)O [Compound H2SO4] |  | N/A (gel) | N/A (gel) | N/A (gel) | N/A (gel) |  |
| O=P(O)(O)O [Compound H3PO4] |  |  |  | N/A (gel) |  |  |
| O=[N+]([O-])O [HNO3] |  | N/A (gel) | N/A (gel) | N/A (gel) | N/A (gel) |  |
| N=C(N)NCCC[C@H](N)C(=O)O [L-Arginine] |  | N/A (gel) | N/A (gel) | N/A (gel) | N/A (gel) |  |
| NCCCC[C@H](N)C(=O)O [L-Lysine] |  | N/A (gel) | N/A (gel) | N/A (gel) | L-Lysine |  |
| O=C(O)/C=C\C(=O)O [Maleic] |  | N/A (gel) | N/A (gel) | N/A (gel) | N/A (gel) |  |
| CS(=O)(=O)O [Methane Sulfonic] |  | N/A (gel) | N/A (gel) | N/A (gel) | N/A (gel) |  |
| O=C(O)CCC(=O)O [Succinic] |  | N/A (gel) | N/A (gel) | N/A (gel) | N/A (gel) |  |
| Fumaric |  | N/A (gel) |  | N/A (gel) | N/A (gel) |  |
